Laboratory results as given in ChEMBL document CHEMBL1201862, “PubChem BioAssay data set” (2004).
Values joined by “and” are separate entries in the source; they are usually repeats but may differ in a detail not shown here. Identical values can stand only once.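 Briefly, cells in 96-well plates were exposed to five compound concentrations for 48 h, and endpoints were estimated by linear interpolation. GI50 marks 50% less growth.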 Active and inactive are the calls of the source. Cut-off read from the data, not from the text of the source: active = GI50 up to about 1.1 µM and inactive = higher.

Key:
Test in all cases: growth of human tumour cells (NCI), 48 h
BT-549 = system: BT-549
SK-MEL-28 = system: SK-MEL-28
T47D = system: T47D
IGROV-1 = system: IGROV-1
HL-60 = system: HL-60
TK-10 = system: TK-10
SNB-75 = system: SNB-75
K562 = system: K562
KM12 = system: KM12
Hs-578T = system: Hs-578T
NCI/ADR-RES = system: NCI/ADR-RES
SK-OV-3 = system: SK-OV-3
CAKI-1 = system: CAKI-1
HT-29 = system: HT-29
UACC-257 = system: UACC-257
CCRF-CEM = system: CCRF-CEM
NCI-H226 = system: NCI-H226
SF-295 = system: SF-295
RXF 393 = system: RXF 393

Row | SMILES | GI50 (BT-549) | GI50 (SK-MEL-28) | GI50 (T47D) | GI50 (IGROV-1) | GI50 (HL-60) | GI50 (TK-10) | GI50 (SNB-75) | GI50 (K562) | GI50 (KM12) | GI50 (Hs-578T) | GI50 (NCI/ADR-RES) | GI50 (SK-OV-3) | GI50 (CAKI-1) | GI50 (HT-29) | GI50 (UACC-257) | GI50 (CCRF-CEM) | GI50 (NCI-H226) | GI50 (SF-295) | GI50 (RXF 393)
1 | O=C(CCCn1ccnc1[N+](=O)[O-])NCCn1ccnc1 | > 100 µM (inactive) | > 100 µM (inactive) | > 100 µM (inactive) | > 100 µM (inactive) | > 100 µM (inactive) | > 100 µM (inactive) | > 100 µM (inactive) | > 100 µM (inactive) | > 100 µM (inactive) | > 100 µM (inactive) | > 100 µM (inactive) | > 100 µM (inactive) | > 100 µM (inactive) | > 100 µM (inactive) | > 100 µM (inactive) | > 100 µM (inactive) | > 100 µM (inactive) | > 100 µM (inactive) | –
2 | COc1cc2cc(C(=O)N3CC(CCl)c4c3cc(O)c3ccccc43)[nH]c2c(OC)c1OC (stereo unspecified) | < 0.005 µM (active) | < 0.005 µM (active) | < 0.005 µM (active) | – | < 0.005 µM (active) | < 0.005 µM (active) | < 0.005 µM (active) | < 0.005 µM (active) | < 0.005 µM (active) | < 0.005 µM (active) | < 0.005 µM (active) | < 0.005 µM (active) | – | < 0.005 µM (active) | < 0.005 µM (active) | < 0.005 µM (active) | < 0.005 µM (active) | < 0.005 µM (active) | < 0.005 µM (active)
3 | COC(=O)[C@@H]1[C@@H]2NC(=S)N[C@@]1(C)Oc1ccccc12 | 83.6 µM (inactive) | > 100 µM (inactive) | > 100 µM (inactive) | 49 µM (inactive) | – | > 100 µM (inactive) | 27.4 µM (inactive) | 29.5 µM (inactive) | 29.7 µM (inactive) | 51.9 µM (inactive) | 30.2 µM (inactive) | 47.8 µM (inactive) | 76.9 µM (inactive) | 28.5 µM (inactive) | > 100 µM (inactive) | 61.9 µM (inactive) | 91.4 µM (inactive) | 38.5 µM (inactive) | > 100 µM (inactive)
4 | Nc1nc(Nc2ccc(Cl)cc2)sc1C(=O)c1cccs1 | 40.5 µM (inactive) | > 100 µM (inactive) | 77.8 µM (inactive) | 39.6 µM (inactive) | > 100 µM (inactive) | 13.1 µM (inactive) | – | – | > 100 µM (inactive) | 15.2 µM (inactive) | 50.6 µM (inactive) | 22.9 µM (inactive) | – | 6.18 µM (inactive) | > 100 µM (inactive) | 53.7 µM (inactive) | 24.7 µM (inactive) | – | 17.2 µM (inactive)
5 | COC(=O)c1sc(=S)sc1SCc1ccc(CSc2sc(=S)sc2C(=O)OC)cc1 | > 100 µM (inactive) | > 100 µM (inactive) | > 100 µM (inactive) | > 100 µM (inactive) | – | > 100 µM (inactive) | > 100 µM (inactive) | > 100 µM (inactive) | > 100 µM (inactive) | > 100 µM (inactive) | > 100 µM (inactive) | > 100 µM (inactive) | > 100 µM (inactive) | > 100 µM (inactive) | > 100 µM (inactive) | > 100 µM (inactive) | > 100 µM (inactive) | > 100 µM (inactive) | > 100 µM (inactive)
6 | Cc1ccc(S(=O)(=O)SC/C=C\CSS(=O)(=O)c2ccc(C)cc2)cc1 | 9.59 µM (inactive) | – | 39.3 µM (inactive) | 39.2 µM (inactive) and 28.1 µM (inactive) | – | – | 19.1 µM (inactive) and 36.6 µM (inactive) | – | 14.7 µM (inactive) and 17.2 µM (inactive) | 67 µM (inactive) | 52.2 µM (inactive) | 43.5 µM (inactive) and 55.8 µM (inactive) | 21.4 µM (inactive) and 18.2 µM (inactive) | – | – | 0.262 µM (active) | 23.1 µM (inactive) and 24.3 µM (inactive) | 19.1 µM (inactive) and 37.7 µM (inactive) | 18 µM (inactive) and 22.8 µM (inactive)
7 | O=[N+]([O-])c1ccc(OP(=O)(O)OCC2OC(CP(=O)(O)O)C(O)C2O)cc1 (stereo unspecified) | > 100 µM (inactive) | > 100 µM (inactive) | > 100 µM (inactive) | > 100 µM (inactive) | > 100 µM (inactive) | > 100 µM (inactive) | – | > 100 µM (inactive) | > 100 µM (inactive) | > 100 µM (inactive) | > 100 µM (inactive) | – | > 100 µM (inactive) | > 100 µM (inactive) | > 100 µM (inactive) | > 100 µM (inactive) | – | > 100 µM (inactive) | > 100 µM (inactive)
8 | CC(=O)Nc1ccc2cc3[nH]c4cc(NC(C)=O)ccc4c3nc2c1 | > 100 µM (inactive) | > 100 µM (inactive) | 31.3 µM (inactive) | > 100 µM (inactive) | – | > 100 µM (inactive) | > 100 µM (inactive) | 77.1 µM (inactive) | 21.7 µM (inactive) | > 100 µM (inactive) | > 100 µM (inactive) | > 100 µM (inactive) | > 100 µM (inactive) | > 100 µM (inactive) | > 100 µM (inactive) | 38 µM (inactive) | > 100 µM (inactive) | > 100 µM (inactive) | > 100 µM (inactive)
9 | Cc1ccc(S(=O)(=O)N2CCN(S(=O)(=O)c3ccc(C)cc3)Cc3ccccc3C2)cc1 | 64.9 µM (inactive) | > 100 µM (inactive) | 28.2 µM (inactive) | > 100 µM (inactive) | > 100 µM (inactive) | > 100 µM (inactive) | – | > 100 µM (inactive) | > 100 µM (inactive) | 24.5 µM (inactive) | > 100 µM (inactive) | – | 39.4 µM (inactive) | > 100 µM (inactive) | 49.8 µM (inactive) | > 100 µM (inactive) | 60.3 µM (inactive) | 31 µM (inactive) | –
10 | Nc1nc(Cl)cc(NCC2(CO)CC=CC2)n1 | 33.1 µM (inactive) | > 100 µM (inactive) | 47.1 µM (inactive) | > 100 µM (inactive) | – | > 100 µM (inactive) | > 100 µM (inactive) | > 100 µM (inactive) | > 100 µM (inactive) | > 100 µM (inactive) | > 100 µM (inactive) | > 100 µM (inactive) | > 100 µM (inactive) | > 100 µM (inactive) | > 100 µM (inactive) | > 100 µM (inactive) | > 100 µM (inactive) | > 100 µM (inactive) | 33.1 µM (inactive)
11 | CCNC(=S)N/N=C/c1cc([N+](=O)[O-])ccc1O | 36.9 µM (inactive) | 51.8 µM (inactive) | 19.9 µM (inactive) | 22.4 µM (inactive) | 11.9 µM (inactive) | 16.2 µM (inactive) | 52 µM (inactive) | 20.6 µM (inactive) | 23.8 µM (inactive) | 70.5 µM (inactive) | 21.8 µM (inactive) | 15 µM (inactive) | – | 41.8 µM (inactive) | 24.6 µM (inactive) | 4.47 µM (inactive) | 27.9 µM (inactive) | 35.6 µM (inactive) | 62.2 µM (inactive)
12 | COc1cc(/C=C2\N=C(c3ccccc3)N(c3nc4c(OC)ccc(OC)c4s3)C2=O)ccc1O | 96.4 µM (inactive) | > 100 µM (inactive) | 5.47 µM (inactive) | 46.8 µM (inactive) | 36.6 µM (inactive) | 58.1 µM (inactive) | 8.34 µM (inactive) | 18.1 µM (inactive) | 51.2 µM (inactive) | 48.8 µM (inactive) | > 100 µM (inactive) | > 100 µM (inactive) | > 100 µM (inactive) | > 100 µM (inactive) | 38 µM (inactive) | 28.1 µM (inactive) | – | 79.1 µM (inactive) | 11.1 µM (inactive)
13 | Cc1nnc2sc(-c3ccc([N+](=O)[O-])o3)nn12 | 10.7 µM (inactive) | – | 20 µM (inactive) | 15.7 µM (inactive) | 2.47 µM (inactive) | 15.3 µM (inactive) | – | 5.33 µM (inactive) | 15.8 µM (inactive) | 30.3 µM (inactive) | 16.4 µM (inactive) | 18.7 µM (inactive) | 10 µM (inactive) | 12.9 µM (inactive) | 12.7 µM (inactive) | 1.85 µM (inactive) | 15 µM (inactive) | 16.9 µM (inactive) | 11.6 µM (inactive)
14 | CC(=O)NC1C(OCc2ccccc2)OC(CO)C(O)C1OC(C)C(=O)NC(C(=O)NC(CCC(=O)NCCCC(=O)Nc1ccc2c(c1)CN1C(=O)c3ccccc3C1=N2)C(N)=O)C(C)C (stereo unspecified) | > 100 µM (inactive) | > 100 µM (inactive) | > 100 µM (inactive) | > 100 µM (inactive) | > 100 µM (inactive) | > 100 µM (inactive) | > 100 µM (inactive) | > 100 µM (inactive) | > 100 µM (inactive) | > 100 µM (inactive) | > 100 µM (inactive) | > 100 µM (inactive) | > 100 µM (inactive) | > 100 µM (inactive) | > 100 µM (inactive) | > 100 µM (inactive) | – | > 100 µM (inactive) | > 100 µM (inactive)
15 | COC(=O)[C@H](Cc1ccccc1)NC(=O)CCCCCCC(=O)NO | > 100 µM (inactive) | > 100 µM (inactive) | 0.605 µM (active) | 17.7 µM (inactive) | 6.01 µM (inactive) | 13.8 µM (inactive) | – | 6.53 µM (inactive) | 28.8 µM (inactive) | 12.6 µM (inactive) | 23.1 µM (inactive) | 15.2 µM (inactive) | 28.3 µM (inactive) | 17.6 µM (inactive) | 10.1 µM (inactive) | 2.67 µM (inactive) | 75.3 µM (inactive) | 10.7 µM (inactive) | 5.05 µM (inactive)
